Experimental data reported in publication PMC10235067, “Increased renal elimination of endogenous and synthetic pyrimidine nucleosides in concentrative nucleoside transporter 1 deficient mice” (Nature Communications, 2023).
Several values for one entry are separate records, joined by “and”; a condition that tells them apart may be missing. Equal values may be shown once. Where a name gives a salt, the structure may show the parent alone.

Assay: Gemcitabine plasma pharmacokinetics in Slc28a1+/+ and Slc28a1-/- mice
Conditions: for half-life: T1/2 (terminal half-life); for Vd: Vss
[1] = Gemcitabine in plasma, KO mice, iv gemcitabine 50mg/kg, per mouse
[2] = Gemcitabine in plasma, WT mice, iv gemcitabine 50mg/kg, per mouse
[3] = female, mouse, plasma, iv, 50 mg/kg, Slc28a1+/+ mice, plasma, single i.v. dFdC 50 mg/kg
[4] = female, mouse, plasma, iv, 50 mg/kg, Slc28a1-/- mice, single i.v. dFdC 50 mg/kg

Procedure: To collect blood, a 5 mm lancet was used to apply pressure to the submandibular vein and release blood flow. For retro-orbital collection, mice were anesthetized with 3% isoflurane in oxygen, and the blood was collected directly into heparinized capillary tubes by applying slight pressure to the medial canthus of the eye. Cardiac puncture was performed as the final collection method by first euthanizing the mice in a CO2 chamber and immediately performing posterior cardiac puncture by inserting a 27 G needle with a 1 ml syringe attachment into the heart. Once blood collection was completed, gentle pressure was applied to the blood collection area using gauze to stop the bleeding. Thirty microliters of blood was collected into heparinized capillary tubes at each time point, transferred into prelabeled 0.5 ml microcentrifuge tubes containing THU (10 µg/ml; final concentration), and immediately processed and snap-frozen following procedures outlined in the “Gemcitabine plasma pharmacokinetics” methods section.
Gemcitabine and dFdU plasma concentrations were measured using a modified version of our previously published UHPLC–MS/MS method for nucleosides[74] […] Noncompartmental pharmacokinetic parameters (Cmax, Tmax, AUC, CL, T1/2, etc.) were calculated using WinNonlin 6.2 software (Pharsight; Mountain View, CA). […] The Cmax and Tmax were obtained from the concentration-time curve. The AUC was calculated according to the linear trapezoidal rule up to the last time point with a measurable concentration of the analyte of interest. Significant differences between Slc28a1^+/+ and Slc28a1^−/− mouse pharmacokinetic parameters (p < 0.05) were evaluated with an unpaired two-sided Student’s t-test.
The resulting supernatant was evaporated to dryness in a SpeedVac, and the remaining residue was reconstituted in mobile phase A for subsequent analysis. […] Subsequent processing was identical to that for the plasma and urine samples.
Briefly, the analysis was performed on an Imtakt Schzero SM C18 column, 2.1 × 100 mm, 3.0 µm particle size. The eluents used consisted of mobile phase A consisting of 50 mM ammonium formate:50 mM ammonium hydroxide (9:1, v/v) (pH = 8.6) and mobile phase B consisting of 50 mM ammonium formate:50 mM ammonium hydroxide (9:1, v/v):ACN (80:20, v/v) (pH = 8.6). […] The injection volume was 10 μL, and the autosampler temperature was set at 4 °C throughout the analysis.
The Waters Triple Quadrupole Mass Spectrometer with an ESI source was operated in negative and positive ion mode at a spray voltage of 2.5 kV, capillary temperature of 150 °C, and vaporizer temperature of 250 °C. Compound optimization was performed manually using the MassLynx 4.1 Software AutoTune Wizard (Waters, Milford, MA) by infusion into the mass spectrometer using a T-connector. […] Analyze concentrations were determined and analyzed using MassLynx Mass Spectrometry Software (Waters; Milford, MA).

Compound: Nc1ccn([C@@H]2O[C@H](CO)[C@@H](O)C2(F)F)c(=O)n1 [dFdC, Gemcitabine hydrochloride, reference compound]
- Cl_pred [1]: 1090.62 mL/min/kg and 746.095 mL/min/kg and 1290.14 mL/min/kg and 969.932 mL/min/kg and 755.617 mL/min/kg and 623.084 mL/min/kg
- Clast [1]: 24.8237 ng/mL and 27.6006 ng/mL and 29.5353 ng/mL and 24.934 ng/mL and 28.2215 ng/mL and 23.0093 ng/mL
- Clast_pred [1]: 24.8933 ng/mL and 27.6326 ng/mL and 17.7456 ng/mL and 8.289 ng/mL and 12.8177 ng/mL and 22.4033 ng/mL
- Cmax_D [1]: 41.5984 kg·ng/mL/mg and 55.7076 kg·ng/mL/mg and 53.2658 kg·ng/mL/mg and 59.6169 kg·ng/mL/mg and 79.356 kg·ng/mL/mg and 84.6224 kg·ng/mL/mg
- HL_Lambda_z [1]: 303.191 min and 463.2 min and 8.504 min and 40.9198 min and 7.338 min and 145.3 min
- Lambda_z [1]: 0.002286 min⁻¹ and 0.001496 min⁻¹ and 0.08151 min⁻¹ and 0.01694 min⁻¹ and 0.09446 min⁻¹ and 0.00477 min⁻¹
- MRTINF_obs [1]: 141.603 min and 225.512 min and 8.15 min and 26.989 min and 6.943 min and 27.8346 min
- MRTINF_pred [1]: 141.879 min and 225.692 min and 7.911 min and 21.8034 min and 6.786 min and 27.3569 min
- MRTlast [1]: 12.4456 min and 11.7249 min and 7.547 min and 19.1465 min and 6.655 min and 8.568 min
- Tlast [1]: 120 min and 60 min and 240 min
- Tmax [1]: 5 min
- Vss_obs [1]: 154537 mL/kg and 168308 mL/kg and 10475.9 mL/kg and 25687.9 mL/kg and 5233.23 mL/kg and 17315.9 mL/kg
- Vss_pred [1]: 154735 mL/kg and 168388 mL/kg and 10206.3 mL/kg and 21147.8 mL/kg and 5127.62 mL/kg and 17045.6 mL/kg
- Vz_obs [1]: 477366 mL/kg and 498742 mL/kg and 15769.3 mL/kg and 56188.7 mL/kg and 7979.36 mL/kg and 130407 mL/kg
- Vz_pred [1]: 477049 mL/kg and 498582 mL/kg and 15828.1 mL/kg and 57259.7 mL/kg and 7999.03 mL/kg and 130613 mL/kg
- AUCINF_D_obs [2]: 1342.37 kg·ng·min/mL/mg and 2003.95 kg·ng·min/mL/mg and 1404.16 kg·ng·min/mL/mg and 1832.16 kg·ng·min/mL/mg and 1677.59 kg·ng·min/mL/mg and 1947.35 kg·ng·min/mL/mg
- AUCINF_D_pred [2]: 1351.51 kg·ng·min/mL/mg and 2009.55 kg·ng·min/mL/mg and 1397.88 kg·ng·min/mL/mg and 1826.34 kg·ng·min/mL/mg and 1669.05 kg·ng·min/mL/mg and 1936.73 kg·ng·min/mL/mg
- AUCINF_obs [2]: 100198 ng·min/mL and 70207.8 ng·min/mL and 91608.1 ng·min/mL and 83879.3 ng·min/mL and 97367.3 ng·min/mL
- AUCINF_pred [2]: 100478 ng·min/mL and 69893.8 ng·min/mL and 91317 ng·min/mL and 83452.5 ng·min/mL and 96836.3 ng·min/mL
- AUC_%Back_Ext_obs [2]: 12.8582% and 20.8763% and 29.2762% and 32.2576% and 32.4305% and 25.1142%
- AUC_%Back_Ext_pred [2]: 12.7713% and 20.8181% and 29.4077% and 32.3604% and 32.5963% and 25.252%
- AUC_%Extrap_obs [2]: 9.702% and 18.5437% and 0.7839% and 0.5327% and 0.8134% and 0.9221%
- AUC_%Extrap_pred [2]: 10.3129% and 18.7708% and 0.3382% and 0.2157% and 0.3062% and 0.3788%
- AUCall [2]: 81617.2 ng·min/mL and 71149.3 ng·min/mL and 92539.9 ng·min/mL and 85061.6 ng·min/mL and 98831 ng·min/mL
- AUClast [2]: 81617.2 ng·min/mL and 69657.4 ng·min/mL and 91120.1 ng·min/mL and 83197 ng·min/mL and 96469.4 ng·min/mL
- AUClast_D [2]: 1212.13 kg·ng·min/mL/mg and 1632.34 kg·ng·min/mL/mg and 1393.15 kg·ng·min/mL/mg and 1822.4 kg·ng·min/mL/mg and 1663.94 kg·ng·min/mL/mg and 1929.39 kg·ng·min/mL/mg
- AUMCINF_obs [2]: 5069956 min*min*ng/mL and 20471433 min*min*ng/mL and 1064873 min*min*ng/mL and 1254821 min*min*ng/mL and 1108567 min*min*ng/mL and 1728699 min*min*ng/mL
- AUMCINF_pred [2]: 5292862 min*min*ng/mL and 20755711 min*min*ng/mL and 1020250 min*min*ng/mL and 1213897 min*min*ng/mL and 1047980 min*min*ng/mL and 1652866 min*min*ng/mL
- AUMC_%Extrap_obs [2]: 62.651% and 92.1199% and 7.346% and 5.469% and 8.737% and 7.417%
- AUMC_%Extrap_pred [2]: 64.2239% and 92.2278% and 3.293% and 2.282% and 3.461% and 3.17%
- AUMClast [2]: 1893578 min*min*ng/mL and 1613171 min*min*ng/mL and 986649 min*min*ng/mL and 1186197 min*min*ng/mL and 1011712 min*min*ng/mL and 1600474 min*min*ng/mL
- C0 [2]: 1738.74 ng/mL and 4426.87 ng/mL and 4597.66 ng/mL and 7279.69 ng/mL and 6681.38 ng/mL and 5877.84 ng/mL
- Cl_obs [2]: 499.014 mL/min/kg and 712.172 mL/min/kg and 545.803 mL/min/kg and 596.095 mL/min/kg and 513.519 mL/min/kg
- Cl_pred [2]: 739.914 mL/min/kg and 497.623 mL/min/kg and 715.371 mL/min/kg and 547.543 mL/min/kg and 599.143 mL/min/kg and 516.335 mL/min/kg
- Clast [2]: 26.282 ng/mL and 23.9761 ng/mL and 24.8646 ng/mL and 23.6637 ng/mL and 31.0775 ng/mL and 39.3598 ng/mL
- Clast_pred [2]: 28.1263 ng/mL and 24.3375 ng/mL and 10.6806 ng/mL and 9.552 ng/mL and 11.6372 ng/mL and 16.0822 ng/mL
- Cmax_D [2]: 35.2165 kg·ng/mL/mg and 78.8031 kg·ng/mL/mg and 72.4804 kg·ng/mL/mg and 90.8107 kg·ng/mL/mg and 83.992 kg·ng/mL/mg and 78.0677 kg·ng/mL/mg
- HL_Lambda_z [2]: 171.744 min and 537.158 min and 15.3422 min and 14.2945 min and 15.2178 min and 15.8118 min
- Lambda_z [2]: 0.004036 min⁻¹ and 0.00129 min⁻¹ and 0.04518 min⁻¹ and 0.04849 min⁻¹ and 0.04555 min⁻¹ and 0.04384 min⁻¹
- MRTINF_obs [2]: 75.5375 min and 204.311 min and 15.1675 min and 13.6977 min and 13.2162 min and 17.7544 min
- MRTINF_pred [2]: 78.3253 min and 206.57 min and 14.5971 min and 13.2932 min and 12.5578 min and 17.0687 min
- MRTlast [2]: 31.2438 min and 19.7651 min and 14.1643 min and 13.018 min and 12.1604 min and 16.5905 min
- Tlast [2]: 240 min and 120 min
- Tmax [2]: 15 min
- Vss_obs [2]: 56271.8 mL/kg and 101954 mL/kg and 10801.8 mL/kg and 7476.26 mL/kg and 7878.12 mL/kg and 9117.23 mL/kg
- Vss_pred [2]: 57954 mL/kg and 102794 mL/kg and 10442.4 mL/kg and 7278.61 mL/kg and 7523.93 mL/kg and 8813.15 mL/kg
- Vz_obs [2]: 184580 mL/kg and 386714 mL/kg and 15763.3 mL/kg and 11255.9 mL/kg and 13087 mL/kg and 11714.2 mL/kg
- Vz_pred [2]: 183332 mL/kg and 385636 mL/kg and 15834.1 mL/kg and 11291.8 mL/kg and 13154 mL/kg and 11778.4 mL/kg
- AUC (Last) (Slc28a1+/+ mice, plasma, single i.v. dFdC 50 mg/kg): 81307.3 ± 4123.2 ng x min/mL and 81307 ng x min/mL
- AUC (Last) (Slc28a1-/- mice, plasma, single i.v. dFdC 50 mg/kg): 52203.2 ± 3611.3 ng x min/mL and 52203 ng x min/mL
- CL (systemic clearance) (Slc28a1-/- mice, single i.v. dFdC 50 mg/kg): 950 mL/min/kg
- concentration at 10 min (female, mouse, plasma, intravenous, 50 mg/kg, Cp (Gemcitabine), KO mice, single iv gemcitabine 50mg/kg, 10 min): 1940 ng/mL
- concentration at 60 min (female, mouse, plasma, intravenous, 50 mg/kg, Cp (Gemcitabine), KO mice, single iv gemcitabine 50mg/kg, 60 min): 28.8 ng/mL
- AUC(0-inf) (female, mouse, plasma, iv, 50 mg/kg, AUCINF_obs, Gemcitabine in plasma, WT mice, iv gemcitabine 50mg/kg, per mouse): 1120 ng·h/mL
- AUC(0-inf) (female, mouse, plasma, iv, 50 mg/kg, AUCINF_pred, Gemcitabine in plasma, WT mice, iv gemcitabine 50mg/kg, per mouse): 1130 ng·h/mL
- AUC (female, mouse, plasma, iv, 50 mg/kg, AUCall, Gemcitabine in plasma, WT mice, iv gemcitabine 50mg/kg, per mouse): 1010 ng·h/mL
- AUC(0-t) (female, mouse, plasma, iv, 50 mg/kg, AUClast, Gemcitabine in plasma, WT mice, iv gemcitabine 50mg/kg, per mouse): 1010 ng·h/mL
- clearance (female, mouse, plasma, iv, 50 mg/kg, CL (systemic clearance), Slc28a1+/+ mice, single i.v. dFdC 50 mg/kg): 607 mL/min/kg
- clearance (female, mouse, plasma, iv, 50 mg/kg, CL (systemic clearance), Slc28a1-/- mice, single i.v. dFdC 50 mg/kg): 951 ± 167 mL/min/kg
- clearance (female, mouse, plasma, iv, 50 mg/kg, Cl_obs, Gemcitabine in plasma, WT mice, iv gemcitabine 50mg/kg, per mouse): 745 mL/min/kg
- Cmax [3]: 3650 ± 408 ng/mL
- Cmax [4]: 3120 ± 335 ng/mL
- half-life [3]: 13.6 ± 0.67 min
- half-life [4]: 11.5 ± 0.81 min
- Tmax (female, mouse, plasma, iv, 50 mg/kg, Tmax, Slc28a1+/+ mice, plasma, single i.v. dFdC 50 mg/kg): ~5 min
- Tmax (female, mouse, plasma, iv, 50 mg/kg, Tmax, Slc28a1-/- mice, single i.v. dFdC 50 mg/kg): ~5 min
- Vd (female, mouse, plasma, iv, 50 mg/kg, Slc28a1+/+ mice, single i.v. dFdC 50 mg/kg): 14.4 L/kg
- Vd [4]: 14.1 L/kg
- Cp (Gemcitabine) (plasma, KO mice, single iv gemcitabine 50mg/kg, 10 min): 2505.77 ng/mL and 1699.01 ng/mL and 1487.77 ng/mL and 1743.2 ng/mL and 1817.05 ng/mL
- Cp (Gemcitabine) (plasma, KO mice, single iv gemcitabine 50mg/kg, 60 min): 30.3338 ng/mL and 29.5353 ng/mL and 27.3213 ng/mL and 28.2215 ng/mL and 27.5324 ng/mL
